Data on one molecule can be found in paper PMC11678425, “(-)-Syringaresinol Exerts an Antidepressant-like Activity in Mice by Noncompetitive Inhibition of the Serotonin Transporter” (Pharmaceuticals, 2024).

Series [1] addresses T1, hSERT L565A (Homo sapiens, UniProt P31645, L565A).
T1 construct: forward and reverse primers were used to amplify a full-length hSERT; expressed in transfected cells; host or cells: HeLa
Description: ASP^+ binding, hSERT L565A. The conditions noted are these: S2 site mutant, read-out: SYR IC50 for Binding.

Series [2] has as its target T2, hSERT D328A (Homo sapiens, UniProt P31645, D328A).
T2 construct: forward and reverse primers were used to amplify a full-length hSERT; expressed in transfected cells; host or cells: HeLa cells, transient, pcDNA3.1
Nature of the series: ASP^+ binding, hSERT D328A. The conditions noted are these: S2 site mutant, read-out: SYR IC50 for Binding.

Series [3] concerns the target T3, hSERT S438T (Homo sapiens, UniProt P31645, S438T).
T3 construct: forward and reverse primers were used to amplify a full-length hSERT; expressed in transfected cells; host or cells: HeLa
Nature of the series: APP^+ uptake, hSERT S438T. The series is classed as cell-based. Particulars: S1 site mutant, read-out: SYR IC50 for Transport. How it is done: HeLa cells were cultured in Dulbecco’s Modified Eagle’s Medium supplemented with 10% fetal bovine serum, 100 units/mL penicillin, and 100 μg/mL streptomycin at 37 °C in a humidified 5% CO2 incubator. Cells grown at ~70% confluence in a 6 cm culture dish were transfected with hSERT cDNA in pcDNA3.1 by lipofectamine 2000. Transfected cells were incubated for 12 h at 37 °C with 5% CO2 and then transferred into 96-well plates. After being grown for an additional 12–16 h, the cells were then assayed for APP^+ uptake or ASP^+ binding.
Measurement of transport or ligand binding activity of SERT was performed by using its fluorescent substrate (APP^+) or ligand (ASP^+), respectively. The cells transiently expressing WT or mutants of hSERT were applied for various treatments. Briefly, the cells were washed twice with 100 μL KRH buffer containing 20 mM HEPES (Neofroxx, Einhausen, Germany), pH 7.4, 120 mM NaCl, 1.3 mM KCl, 2.2 mM CaCl2, 1.2 mM MgSO4, and 0.1% (w/v) glucose. APP^+ uptake was measured by adding 100 μL KRH buffer containing 2 μM APP^+ and incubating for 5 min at 22 °C. Excess APP^+ was then removed by 3× rapid washing with 100 μL KRH buffer each time. The extent of APP^+ accumulated in the cells was determined by fluorescence spectrometry with an Infinite 200 Pro microplate reader (Tecan, Männedorf, Switzerland). […]

The target in series [4] is T4, hSERT S559A (Homo sapiens, UniProt P31645, S559A).
T4 construct: forward and reverse primers were used to amplify a full-length hSERT; expressed in transfected cells; host or cells: HeLa cells, transient, pcDNA3.1
T4 sequence (P31645 whole entry S559A): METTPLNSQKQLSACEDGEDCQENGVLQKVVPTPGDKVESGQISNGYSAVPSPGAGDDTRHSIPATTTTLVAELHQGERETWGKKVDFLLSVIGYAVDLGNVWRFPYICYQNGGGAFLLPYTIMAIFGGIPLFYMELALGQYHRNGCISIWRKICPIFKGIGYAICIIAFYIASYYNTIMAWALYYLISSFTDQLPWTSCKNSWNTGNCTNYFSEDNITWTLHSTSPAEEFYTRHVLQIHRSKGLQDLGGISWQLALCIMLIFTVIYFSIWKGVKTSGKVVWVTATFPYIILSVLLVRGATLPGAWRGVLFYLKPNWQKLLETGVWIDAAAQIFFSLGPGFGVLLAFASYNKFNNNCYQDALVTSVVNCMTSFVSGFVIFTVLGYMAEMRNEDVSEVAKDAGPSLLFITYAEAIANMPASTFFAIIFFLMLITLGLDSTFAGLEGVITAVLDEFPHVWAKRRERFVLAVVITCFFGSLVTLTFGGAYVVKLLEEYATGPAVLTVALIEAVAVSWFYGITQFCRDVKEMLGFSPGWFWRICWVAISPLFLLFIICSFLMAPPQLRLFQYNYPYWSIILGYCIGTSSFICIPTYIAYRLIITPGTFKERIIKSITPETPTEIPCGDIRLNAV
Description: APP^+ uptake, hSERT S559A. The series is classed as cell-based. The conditions noted are these: S2 site mutant, read-out: SYR IC50 for Transport.

In series [5] the test system is CUMS mice. Nature of the series: Home cage food consumption after NSFT. The series is classed as in vivo, mouse. Particulars: mouse, in vivo. The procedure:
Figure 6 Animal behavioral tests. (A) Schematic illustration of animal behavioral test timeline. Mice were exposed to CUMS for 3 weeks, as described in Section 4. […] For the CUMS group, saline was given instead of drugs. NSFT was performed after 16–18 h food deprivation, followed by FST and TST. (B) NSFT. The latency time to food in NSFT was counted. (C) Home cage food consumption. Food consumed by individual mice in the home cage (g) within a 20 min period was measured after NSFT. (D) FST. The immobility time during a 2 to 6 min period in FST was measured. (E) TST. The immobility time during 2 to 6 min was counted. n = 8–10 mice/group. Bars represent the mean ± SEM. * p < 0.05 compared with the control or CUMS group, respectively, by one-way ANOVA followed by post hoc tests. ns, not significant.
NSFT was performed after 16 h food deprivation, as described previously. The mouse was placed in an open field (24 × 40 × 14 cm), where a new chow was put in the center, and the latency time to bite food was counted over 10 min. Home cage feeding within a 20 min period was measured after the test. FST was carried out according to a protocol described previously. The mouse was placed into a beaker (Bomex, Beijing, China) with a height of 18 cm filled with water (22 ± 1 °C) for 6 min. The immobile time was measured during minutes 2–6. […] The immobile time during minutes 2–6 was measured.

Series [6] deals with T5, hSERT Q111N (Homo sapiens, UniProt P31645, Q111N).
T5 construct: forward and reverse primers were used to amplify a full-length hSERT; expressed in transfected cells; host or cells: HeLa cells, transient, pcDNA3.1
T5 sequence (P31645 whole entry Q111N): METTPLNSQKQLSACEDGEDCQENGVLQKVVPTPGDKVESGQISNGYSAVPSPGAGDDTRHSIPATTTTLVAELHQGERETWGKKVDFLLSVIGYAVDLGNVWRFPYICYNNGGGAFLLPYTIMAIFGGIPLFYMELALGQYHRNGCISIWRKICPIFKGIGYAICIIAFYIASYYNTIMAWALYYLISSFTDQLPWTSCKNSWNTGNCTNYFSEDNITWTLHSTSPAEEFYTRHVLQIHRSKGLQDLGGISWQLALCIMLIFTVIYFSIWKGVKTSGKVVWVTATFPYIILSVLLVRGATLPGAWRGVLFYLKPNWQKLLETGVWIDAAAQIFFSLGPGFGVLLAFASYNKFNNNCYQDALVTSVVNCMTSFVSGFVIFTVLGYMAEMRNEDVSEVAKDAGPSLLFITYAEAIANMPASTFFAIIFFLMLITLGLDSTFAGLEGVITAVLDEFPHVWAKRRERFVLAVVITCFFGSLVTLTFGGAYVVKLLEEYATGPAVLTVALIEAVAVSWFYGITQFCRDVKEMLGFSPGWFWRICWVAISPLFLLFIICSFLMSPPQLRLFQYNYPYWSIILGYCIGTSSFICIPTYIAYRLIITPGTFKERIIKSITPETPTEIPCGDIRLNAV
Description: APP^+ uptake, hSERT Q111N. The conditions noted are these: S2 site mutant, read-out: SYR IC50 for Transport. The class given is cell-based.

The target in series [7] is T6, hSERT E494Q (Homo sapiens, UniProt P31645, E494Q).
T6 construct: forward and reverse primers were used to amplify a full-length hSERT; expressed in transfected cells; host or cells: HeLa cells, transient, pcDNA3.1
T6 sequence (P31645 whole entry E494Q): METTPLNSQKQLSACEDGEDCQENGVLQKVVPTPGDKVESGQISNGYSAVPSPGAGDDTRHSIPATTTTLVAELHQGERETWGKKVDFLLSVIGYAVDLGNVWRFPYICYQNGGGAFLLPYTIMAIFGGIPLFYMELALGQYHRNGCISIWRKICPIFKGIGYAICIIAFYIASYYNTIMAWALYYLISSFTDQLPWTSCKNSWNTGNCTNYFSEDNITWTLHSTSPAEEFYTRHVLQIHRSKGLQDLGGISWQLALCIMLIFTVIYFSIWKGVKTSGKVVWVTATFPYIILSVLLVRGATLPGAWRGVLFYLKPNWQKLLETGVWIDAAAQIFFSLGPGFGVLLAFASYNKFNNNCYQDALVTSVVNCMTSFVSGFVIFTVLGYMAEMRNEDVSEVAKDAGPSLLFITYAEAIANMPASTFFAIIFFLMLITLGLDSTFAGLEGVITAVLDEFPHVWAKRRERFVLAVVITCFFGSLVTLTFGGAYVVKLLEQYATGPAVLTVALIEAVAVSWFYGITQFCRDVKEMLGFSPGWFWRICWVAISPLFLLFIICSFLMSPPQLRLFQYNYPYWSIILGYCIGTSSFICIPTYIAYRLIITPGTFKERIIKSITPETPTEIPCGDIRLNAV
Nature of the series: APP^+ uptake, hSERT E494Q. The class given is cell-based. Particulars: S2 site mutant, read-out: SYR IC50 for Transport.

In series [8] the target is T7, hSERT P560G (Homo sapiens, UniProt P31645, P560G).
T7 construct: forward and reverse primers were used to amplify a full-length hSERT; expressed in transfected cells; host or cells: HeLa cells, transient, pcDNA3.1
T7 sequence (P31645 whole entry P560G): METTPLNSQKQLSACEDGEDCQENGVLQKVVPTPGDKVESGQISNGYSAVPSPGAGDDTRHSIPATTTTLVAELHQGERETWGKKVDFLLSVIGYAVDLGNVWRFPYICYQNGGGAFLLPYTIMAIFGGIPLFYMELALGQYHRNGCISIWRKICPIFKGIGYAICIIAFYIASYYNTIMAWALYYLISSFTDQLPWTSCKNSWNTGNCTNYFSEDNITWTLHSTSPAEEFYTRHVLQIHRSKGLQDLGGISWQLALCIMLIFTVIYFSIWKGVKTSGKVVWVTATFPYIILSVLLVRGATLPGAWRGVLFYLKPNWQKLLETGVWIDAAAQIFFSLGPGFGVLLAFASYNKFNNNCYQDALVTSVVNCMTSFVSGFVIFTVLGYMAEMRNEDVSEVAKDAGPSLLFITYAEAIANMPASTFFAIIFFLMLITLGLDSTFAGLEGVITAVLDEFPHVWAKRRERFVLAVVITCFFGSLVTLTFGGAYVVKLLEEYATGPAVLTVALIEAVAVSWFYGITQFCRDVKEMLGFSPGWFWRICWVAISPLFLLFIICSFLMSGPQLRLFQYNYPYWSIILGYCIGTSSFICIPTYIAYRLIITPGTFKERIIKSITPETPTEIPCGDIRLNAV
Nature of the series: APP^+ uptake, hSERT P560G. The class given is cell-based. The conditions noted are these: S2 site mutant, read-out: SYR IC50 for Transport.

Series [9] deals with CUMS mice. Description: Forced swim test (FST) in CUMS mice. The class given is in vivo, mouse. The procedure: C57BL/6 adult (6–8 weeks, body weight, 18–22 g) male mice were maintained and handled in a standard condition at the Experimental Animal Center of Southern Medical University (Guangzhou, China). Animal use was approved by the Animal Use and Care Committee of Southern Medical University (approved code: SMUL2021177, approved date: 12 December 2021). The CUMS procedure was carried out according to a protocol described previously. Except for those in the control group, mice were randomly exposed to two mild unpredictable stressors per day for 3 weeks. The stressors included water deprivation, restraint, tilted cage, wet/no bedding, rotation, peppermint, noise, and inverted light off/on. Mice in the control group were group housed without any stressors throughout the procedure. […] NSFT was performed after 16 h food deprivation, as described previously. The mouse was placed in an open field (24 × 40 × 14 cm), where a new chow was put in the center, and the latency time to bite food was counted over 10 min. Home cage feeding within a 20 min period was measured after the test. FST was carried out according to a protocol described previously. The mouse was placed into a beaker (Bomex, Beijing, China) with a height of 18 cm filled with water (22 ± 1 °C) for 6 min. The immobile time was measured during minutes 2–6. TST was performed according to a previous description. The mouse was suspended from a hook that hung from a suspension bar by placing a piece of adhesive tape on its tail about 1 cm away from the tip. The immobile time during minutes 2–6 was measured.

T3 sequence (P31645 whole entry S438T): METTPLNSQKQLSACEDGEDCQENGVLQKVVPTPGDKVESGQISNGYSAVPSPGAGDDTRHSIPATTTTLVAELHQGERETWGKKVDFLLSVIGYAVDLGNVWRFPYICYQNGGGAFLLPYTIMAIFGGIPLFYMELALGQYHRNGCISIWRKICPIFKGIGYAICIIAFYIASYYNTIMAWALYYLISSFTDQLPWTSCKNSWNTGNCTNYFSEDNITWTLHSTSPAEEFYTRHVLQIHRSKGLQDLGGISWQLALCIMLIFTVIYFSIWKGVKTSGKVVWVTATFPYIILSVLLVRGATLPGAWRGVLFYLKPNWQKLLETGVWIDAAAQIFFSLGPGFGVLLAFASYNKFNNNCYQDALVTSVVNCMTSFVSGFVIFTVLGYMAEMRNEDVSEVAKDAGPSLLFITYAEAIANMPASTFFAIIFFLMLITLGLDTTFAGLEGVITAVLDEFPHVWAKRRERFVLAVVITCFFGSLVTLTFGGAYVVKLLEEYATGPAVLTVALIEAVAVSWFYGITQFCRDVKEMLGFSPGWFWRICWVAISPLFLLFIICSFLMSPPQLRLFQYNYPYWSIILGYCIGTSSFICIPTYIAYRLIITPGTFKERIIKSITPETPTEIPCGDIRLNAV
T1 sequence (P31645 whole entry L565A): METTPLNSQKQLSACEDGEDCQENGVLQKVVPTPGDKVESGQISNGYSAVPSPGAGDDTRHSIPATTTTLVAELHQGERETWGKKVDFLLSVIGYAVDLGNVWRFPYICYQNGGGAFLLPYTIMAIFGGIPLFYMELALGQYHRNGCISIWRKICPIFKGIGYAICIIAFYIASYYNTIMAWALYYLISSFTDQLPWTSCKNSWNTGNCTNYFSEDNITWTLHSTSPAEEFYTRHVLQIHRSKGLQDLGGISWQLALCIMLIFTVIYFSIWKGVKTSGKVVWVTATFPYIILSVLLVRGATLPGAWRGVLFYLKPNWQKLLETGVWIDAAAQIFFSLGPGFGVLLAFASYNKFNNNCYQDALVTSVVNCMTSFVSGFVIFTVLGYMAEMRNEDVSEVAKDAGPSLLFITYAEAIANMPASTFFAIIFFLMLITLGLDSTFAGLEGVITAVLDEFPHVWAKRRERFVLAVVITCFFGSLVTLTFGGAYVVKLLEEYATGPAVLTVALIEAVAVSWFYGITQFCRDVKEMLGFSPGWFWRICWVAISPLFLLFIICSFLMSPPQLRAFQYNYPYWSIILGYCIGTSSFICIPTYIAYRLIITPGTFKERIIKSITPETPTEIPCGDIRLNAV
T2 sequence (P31645 whole entry D328A): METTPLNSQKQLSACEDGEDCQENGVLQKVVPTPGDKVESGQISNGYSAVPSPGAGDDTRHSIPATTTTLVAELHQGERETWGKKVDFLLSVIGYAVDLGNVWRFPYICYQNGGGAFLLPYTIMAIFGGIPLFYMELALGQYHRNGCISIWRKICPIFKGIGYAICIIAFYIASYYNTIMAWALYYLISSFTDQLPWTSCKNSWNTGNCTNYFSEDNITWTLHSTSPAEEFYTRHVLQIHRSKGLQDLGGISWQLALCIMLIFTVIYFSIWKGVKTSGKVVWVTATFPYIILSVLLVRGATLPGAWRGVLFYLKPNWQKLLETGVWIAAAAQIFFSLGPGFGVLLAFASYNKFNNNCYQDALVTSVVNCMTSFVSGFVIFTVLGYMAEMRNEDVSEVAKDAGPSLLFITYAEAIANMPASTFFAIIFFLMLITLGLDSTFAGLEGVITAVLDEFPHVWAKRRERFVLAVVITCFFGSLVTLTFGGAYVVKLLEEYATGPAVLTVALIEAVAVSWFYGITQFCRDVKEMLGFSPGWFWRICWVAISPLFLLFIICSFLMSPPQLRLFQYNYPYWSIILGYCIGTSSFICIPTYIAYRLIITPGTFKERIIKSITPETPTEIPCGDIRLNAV

By IC50 is commonly meant the point on the concentration scale where inhibition reaches its midpoint. For `COc1cc([C@@H]2OC[C@@H]3[C@H]2CO[C@H]3c2cc(OC)c(O)c(OC)c2)cc(OC)c1O` [SYR, (-)-syringaresinol], the IC50 in series [1] came to 21 ± 0.45 µM; in [2] it was 39.2 ± 0.78 µM; in [3], 910 ± 20 nM; in series [4] it was 19.5 ± 1.46 µM; in series [6], 17.7 ± 0.45 µM; in series [7], 12 ± 2.17 µM. Further, the IC50 in series [8] is 5.99 ± 0.96 µM. Further, the “home cage food consumption” value in series [5] was “little effect”. Further, the “reversal of behavioral abnormalities in FST” value in [9] (5 mg/kg, i.p., once per day day 7 to 21) is given as “did not exhibit a significant response”. The “effect in FST” value in series [9] (10 or 20 mg/kg (i.p.)) is listed as “remarkable antidepressant-like effects”.
